Patent US10251889B2, “Substituted pyrazolo[1,5-a]pyrimidine compounds as Trk kinase inhibitors” (Array BioPharma, Inc., priority 2009, dated 2019)

biological target: Jak2 (human Jak2 kinase domain, amino acids 808-1132) (Homo sapiens (Human), UniProt O60674); test: Jak2 inhibition assay (Omnia kinase assay); type: biochemical; settings: read-out: Jak2 Enzyme (% inhibition at 1000 nM), Table 1; 1000 nM test compound
Description: The assays described in Examples C, D, E and F for the determination of JAK1, JAK2, JAK3 and Tyk2 kinase activity, respectively, utilized the Omnia® Kinase fluorescence peptide substrate-based technology (Invitrogen). […] The reactions were therefore read at excitation 360 nm and emission was measured at 485 nm every 50 seconds for 45 minutes using a PerkinElmer EnVision Multilabel Plate Reader.
The final buffer conditions for each of the JAK1, JAK2, JAK3 and Tyk2 assays were as follows: 25 mM HEPES, pH 7.4, 10 mM MgCl2, 0.01% Triton X-100 and 1 mM DTT.
Two-μL aliquots of these were transferred to a fresh plate for a ten-fold intermediate dilution with assay buffer. Five-μL aliquots of the diluted compounds were then transferred to 20-μL of assay mixtures described in Examples C, D, E and F for a final concentration of DMSO of 2%. […] For each plate, percent of control (POC) values were calculated for each well according to the following equation:
where Xmax=Average Uninhibited Controls • Xmin=Average Background IC50's were estimated from the POC's using a standard 4-parameter logistic model:
where A=Minimum Y (Bottom Asymptote) • B=Maximum Y (Top Asymptote) • C=EC50 • D=Slope Factor • X=Compound Concentration (nM) • Y=POC
The IC50 is defined as the concentration of inhibitor at which the POC equals 50 for the fitted curve.
Compounds of Formula I were screened for their ability to inhibit Jak2 using the general enzyme inhibition assay method, in which the assay mixture contained 500 μM ATP, 10 μM Omnia® Y7 peptide (Catalog # IVGN KNZ3071C, Invitrogen Corporation, Carlsbad, Calif.) and 4 nM Jak2 in a total volume of 20 μL. Human Jak2 kinase domain comprising amino acids 808-1132 was purchased from Invitrogen Corporation, Carlsbad, Calif. (catalog # IVGN PV4210).

Chain of Jak2 (human Jak2 kinase domain, amino acids 808-1132) (O60674 808-1132): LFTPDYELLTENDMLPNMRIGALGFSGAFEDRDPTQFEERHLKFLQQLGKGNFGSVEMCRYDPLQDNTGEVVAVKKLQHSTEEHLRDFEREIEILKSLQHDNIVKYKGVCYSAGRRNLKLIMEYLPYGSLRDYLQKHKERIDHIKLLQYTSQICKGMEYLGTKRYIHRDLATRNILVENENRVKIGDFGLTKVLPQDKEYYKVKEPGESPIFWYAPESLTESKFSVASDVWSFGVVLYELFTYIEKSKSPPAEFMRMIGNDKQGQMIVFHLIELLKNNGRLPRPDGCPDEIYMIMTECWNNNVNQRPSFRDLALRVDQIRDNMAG

First: COc1ccc(F)cc1[C@H]1CCCN1c1ccn2ncc(C(=O)N[C@H]3CC[C@H](O)CC3)c2n1 [Example 34, 5-((R)-2-(5-fluoro-2-methoxyphenyl)pyrrolidin-1-yl)-N-((trans)-4-hydroxycyclohexyl)pyrazolo[1,5-a]pyrimidine-3-carboxamide]
Second: CS(=O)(=O)N1CCC(NC(=O)c2cnn3ccc(N4CCC[C@@H]4c4cc(F)ccc4F)nc23)CC1 [Example 44, (R)-5-(2-(2,5-difluorophenyl)pyrrolidin-1-yl)-N-(1-(methylsulfonyl)piperidin-4-yl)pyrazolo[1,5-a]pyrimidine-3-carboxamide]
The inhibition at 1 µM of the first is higher: 96.9% for the first, 71.5% for the second.

Compared with `COc1ncc(F)cc1[C@H]1CCCN1c1ccn2ncc(C(=O)NC[C@H](C)O)c2n1` [Example 156, 5-((R)-2-(5-fluoro-2-methoxypyridin-3-y1)pyrrolidin-1-yl)-N-((S)-2-hydroxypropyl)pyrazolo[1,5-a]pyrimidine-3-carboxamide], `COc1ncc(F)cc1[C@H]1CCCN1c1ccn2ncc(C(=O)NC[C@@H](O)CO)c2n1` [Example 150, N-((R)-2,3-dihydroxypropyl)-5-((R)-2-(5-fluoro-2-methoxypyridin-3-yl)pyrrolidin-1-yl)pyrazolo[1,5-a]pyrimidine-3-carboxamide] is lower in inhibition at 1 µM: 16.1% for the first, 8.9% for the second.

Compared with `O=C(NCC(F)CCl)c1cnn2ccc(N3CCC[C@@H]3c3cncc(F)c3)nc12` (stereo partly drawn) [Example 97, N-(3-chloro-2-fluoropropyl)-5-((R)-2-(5-fluoropyridin-3-yl)pyrrolidin-1-yl)pyrazolo[1,5-a]pyrimidine-3-carboxamide], `NC(=O)c1cnn2ccc(N3CCC[C@@H]3c3cncc(F)c3)nc12` [Example 117, (R)-5-(2-(5-fluoropyridin-3-yl)pyrrolidin-1-yl)pyrazolo[1,5-a]pyrimidine-3-carboxamide] is lower in inhibition at 1 µM: 6.8% for the first, -1.4% for the second.

Going from `Cn1cc(F)cc([C@H]2CCCN2c2ccn3ncc(C(=O)NC(C)(C)C)c3n2)c1=O` [Example 226, (R)—N-tert-butyl-5-(2-(5-fluoro-1-methyl-2-oxo-1,2-dihydropyridin-3-yl)pyrrolidin-1-yl)pyrazolo[1,5-a]pyrimidine-3-carboxamide] to `CC(C)(C)NC(=O)c1cnn2ccc(N3CCC[C@@H]3c3cc(F)ccc3F)nc12` [Example 1, (R)—N-tert-butyl-5-(2-(2,5-difluorophenyl)pyrrolidin-1-yl)pyrazolo[1,5-a]pyrimidine-3-carboxamide], the inhibition at 1 µM falls from 100% to 39.5%.

Compared with `C[C@@H](NC(=O)c1cnn2ccc(N3[C@H](CO)CC[C@@H]3c3cncc(F)c3)nc12)C(F)(F)F` [Example 212, 5-((2R,5S)-2-(5-fluoropyridin-3-yl)-5-(hydroxymethyl)pyrrolidin-1-yl)-N—((R)-1,1,1-trifluoropropan-2-yl)pyrazolo[1,5-a]pyrimidine-3-carboxamide], `C[C@H](NC(=O)c1cnn2ccc(N3C[C@@H](O)C[C@@H]3c3cccc(F)c3)nc12)C(F)(F)F` [Example 216, 5-((2R,4S)-2-(3-fluorophenyl)-4-hydroxypyrrolidin-1-yl)-N—((S)-1,1,1-trifluoropropan-2-yl)pyrazolo[1,5-a]pyrimidine-3-carboxamide] is higher in inhibition at 1 µM: 14.2% for the first, 54% for the second.

First: Cc1ncc(F)cc1[C@H]1CCCN1c1ccn2ncc(C(=O)N[C@@H]3CCC[C@H]3O)c2n1 [Example 197, 5-((R)-2-(5-fluoro-2-methylpyridin-3-yl)pyrrolidin-1-yl)-N-((1R,2R)-2-hydroxycyclopentyl)pyrazolo[1,5-a]pyrimidine-3-carboxamide]
Second: O=C(N[C@H]1CCC[C@@H]1O)c1cnn2ccc(N3CCC[C@@H]3c3cncc(F)c3)nc12 [Example 103, 5-((R)-2-(5-fluoropyridin-3-yl)pyrrolidin-1-yl)-N-((1S,2S)-2-hydroxycyclopentyl)pyrazolo[1,5-a]pyrimidine-3-carboxamide]
The inhibition at 1 µM of the first is lower: 3.6% for the first, 4.5% for the second.

Going from `COc1ncc(F)cc1[C@H]1CCCN1c1ccn2ncc(C(=O)NOCCOC(C)(C)C)c2n1` [Example 152, (R)-N-(2-tert-butoxyethoxy)-5-(2-(5-fluoro-2-methoxypyridin-3-yl)pyrrolidin-1-yl)pyrazolo[1,5-a]pyrimidine-3-carboxamide] to `COCC(C)NC(=O)c1cnn2ccc(N3CCCC3c3cncc(F)c3)nc12` [Example 118, 5-((R)-2-(5-fluoropyridin-3-yl)pyrrolidin-1-yl)-N-(1-methoxypropan-2-yl)pyrazolo[1,5-a]pyrimidine-3-carboxamide], the inhibition at 1 µM falls from 7.6% to -4.5%.

Going from `Cc1ncc(F)cc1[C@H]1CCCN1c1ccn2ncc(C(=O)NC3(CO)CC3)c2n1` [Example 193, (R)-5-(2-(5-fluoro-2-methylpyridin-3-yl)pyrrolidin-1-yl)-N-(1-(hydroxymethyl)cyclopropyl)-pyrazolo[1,5-a]pyrimidine-3-carboxamide] to `CC1(O)CN(C(=O)c2cnn3ccc(N4CCC[C@@H]4c4cncc(F)c4)nc23)C1` [Example 92, (R)-(5-(2-(5-fluoropyridin-3-yl)pyrrolidin-1-yl)pyrazolo[1,5-a]pyrimidin-3-yl)(3-hydroxy-3-methylazetidin-1-yl)methanone], the inhibition at 1 µM falls from 8.4% to 0.5%.

First: O=C(Nc1ccc(F)cn1)c1cnn2ccc(N3CCC[C@@H]3c3cncc(F)c3)nc12 [Example 95, (R)—N-(5-fluoropyridin-2-yl)-5-(2-(5-fluoropyridin-3-yl)pyrrolidin-1-yl)pyrazolo[1,5-a]pyrimidine-3-carboxamide]
Second: O=C(Nc1ccccn1)c1cnn2ccc(N3CCC[C@@H]3c3cc(F)ccc3F)nc12 [Example 2, (R)-5-(2-(2,5-difluorophenyl)pyrrolidin-1-yl)-N-(pyridin-2-yl)pyrazolo[1,5-a]pyrimidine-3-carboxamide]
The inhibition at 1 µM of the first is higher: 19.2% for the first, 19.1% for the second.

First: O=C(NOC[C@@H](O)CO)c1cnn2ccc(N3CCC[C@@H]3c3cc(F)ccc3F)nc12 [Example 88, 5-((R)-2-(2,5-difluorophenyl)pyrrolidin-1-yl)-N—((S)-2,3-dihydroxypropoxy)pyrazolo[1,5-a]pyrimidine-3-carboxamide]
Second: NS(=O)(=O)N1CCC(NC(=O)c2cnn3ccc(N4CCC[C@@H]4c4cc(F)ccc4F)nc23)CC1 [Example 45, (R)-5-(2-(2,5-difluorophenyl)pyrrolidin-1-yl)-N-(1-sulfamoylpiperidin-4-yl)pyrazolo[1,5-a]pyrimidine-3-carboxamide]
The inhibition at 1 µM of the first is lower: 15.1% for the first, 84% for the second.

Compared with `CC(C)NC(=O)c1cnn2ccc(N3[C@@H](c4cncc(F)c4)CC[C@@]3(C)CO)nc12` [Example 219, 5-((2 S, 5R)-5-(5-fluoropyridin-3-yl)-2-(hydroxymethyl)-2-methylpyrrolidin-1-yl)-N-isopropylpyrazolo[1,5-a]pyrimidine-3-carboxamide], `CC(C)[C@H](CO)NC(=O)c1cnn2ccc(N3CCC[C@@H]3c3cncc(F)c3)nc12` [Example 122, 5-((R)-2-(5-fluoropyridin-3-yl)pyrrolidin-1-yl)-N-((R)-1-hydroxy-3-methylbutan-2-yl)pyrazolo[1,5-a]pyrimidine-3-carboxamide] is lower in inhibition at 1 µM: 25.5% for the first, 7.4% for the second.

Compound `O=C(N[C@@H]1CCC[C@@H]1O)c1cnn2ccc(N3CCC[C@@H]3c3cncc(F)c3)nc12` [Example 135, 5-((R)-2-(5-fluoropyridin-3-yl)pyrrolidin-1-y1)-N-((1R,2S)-2-hydroxycyclopentyl)pyrazolo[1,5-a]pyrimidine-3-carboxainide] has an inhibition at 1 µM of -1%.
